Measured values from ChEMBL document CHEMBL1201862, “PubChem BioAssay data set” (2004).
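1) Cells in 96-well plates. 2) Compound, 48 h, 5 concentrations. 3) Linear interpolation between surrounding doses. 4) Unreached endpoint = highest concentration. The concentration for 50% growth inhibition is given as GI50.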 Active and inactive are the calls of the source. Rule as the data show it: active = GI50 up to about 1.1 µM and inactive = higher.

How the values were obtained:
Assay in all cases: DTP human tumour cell line panel, 48 h
[1] = system: OVCAR-5
[2] = system: A498
[3] = system: UACC-62
[4] = system: TK-10
[5] = system: HOP-92
[6] = system: SF-295
[7] = system: SNB-75
[8] = system: ACHN
[9] = system: SF-268
[10] = system: HCT-116
[11] = system: HOP-62
[12] = system: MOLT-4
[13] = system: NCI-H460
[14] = system: COLO 205
[15] = system: OVCAR-3
[16] = system: HT-29
[17] = system: NCI-H522
[18] = system: HCC 2998
[19] = system: RXF 393

Measured: GI50

Cn1c(=O)c2c(nc3n2C(CCl)CO3)n(C)c1=O (stereo not given)
inactive: [1] > 100 µM | [2] > 100 µM | [3] > 100 µM | [4] > 100 µM | [5] > 100 µM | [6] > 100 µM | [7] > 100 µM | [8] > 100 µM | [9] > 100 µM | [10] > 100 µM | [11] > 100 µM | [12] > 100 µM | [13] > 100 µM | [14] > 100 µM | [15] > 100 µM | [16] > 100 µM | [17] > 100 µM | [18] > 100 µM

CC(C)(C)c1ccc(OCCOCCOc2ccc(C(C)(C)C)cc2S(N)(=O)=O)c(S(N)(=O)=O)c1
inactive: [1] > 100 µM | [2] 20.3 µM | [3] 52.1 µM | [19] 20.2 µM | [4] > 100 µM | [5] 24.6 µM | [6] > 100 µM | [7] > 100 µM | [8] 29.1 µM | [9] 97.3 µM | [10] 17.4 µM | [11] > 100 µM | [12] 4.46 µM | [13] 34.9 µM | [14] > 100 µM | [15] > 100 µM | [16] 6.84 µM | [18] > 100 µM

CC12CCCC(C#N)(C1)OC2=O (stereo not given)
inactive: [1] > 100 µM | [2] > 100 µM | [3] > 100 µM | [19] > 100 µM | [4] > 100 µM | [5] > 100 µM | [6] > 100 µM | [7] > 100 µM | [8] > 100 µM | [9] > 100 µM | [10] > 100 µM | [11] > 100 µM | [12] > 100 µM | [13] > 100 µM | [15] > 100 µM | [16] > 100 µM | [17] > 100 µM

O=C(Nc1ccn(CCOC(=O)c2ccccc2)c(=O)n1)c1ccccc1
inactive: [1] > 100 µM | [2] > 100 µM | [3] > 100 µM | [19] > 100 µM | [4] > 100 µM | [5] > 100 µM | [6] > 100 µM | [7] > 100 µM | [8] > 100 µM | [9] > 100 µM | [10] > 100 µM | [11] > 100 µM | [13] > 100 µM | [14] > 100 µM | [15] > 100 µM | [16] > 100 µM | [17] > 100 µM
